Test systems include DLD-1 colon; HOP-18 NSCLC; M19-MEL melanoma; MCF7 breast; MDA-MB-231 breast; MDA-MB-435; NCI/ADR-RES ovarian; PC-3 prostate; T-47D breast; BT-549 breast.
Common to all, as to assay: NCI-60 cell line screen, 48 h

Several values for one entry are separate records, joined by “and”; a condition that tells them apart may be missing. Identical values can stand only once.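 Test compounds were applied to cells in 96-well plates for 48 hours at 5 doses. At the GI50, growth is halved. TGI: concentration producing complete growth inhibition.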

Regarding `CC(O)C(NC(=O)C(CS)NC(=O)C(CO)NC(=O)C(CCCCN)NC(=O)C(Cc1c[nH]c2ccccc12)NC(=O)C(Cc1ccc(O)cc1)NC(=O)C(CS)NC(=O)C(N)Cc1ccccc1)C(N)=O` (stereo not drawn), the TGI is 59.7 µM in the test with DLD-1 colon; 46.6 µM in the test on HOP-18 NSCLC; 70.9 µM in the test on M19-MEL melanoma; above 25 µM in the test with MCF7 breast; above 25 µM with MDA-MB-231 breast; above 25 µM with MDA-MB-435. The TGI in the test with NCI/ADR-RES ovarian, in the test with PC-3 prostate and in the test on T-47D breast was above 25 µM throughout.
Regarding `O=C1c2cccc3cc([N+](=O)[O-])cc(c23)C(=O)N1CCCN1CCN(CCCN2C(=O)c3cccc4cc([N+](=O)[O-])cc(c34)C2=O)CC1`, the TGI is above 100 µM in the test on DLD-1 colon, 7.81 µM in the test with HOP-18 NSCLC and 2.56 µM in the test with M19-MEL melanoma.
`COc1cccc2c1C1=CC(=O)CCC1C(C)(C)O2` (stereo not drawn): the TGI in the test with DLD-1 colon, in the test on HOP-18 NSCLC and with M19-MEL melanoma was above 100 µM each time.
With `COc1ccc(N=Cc2ccc(N(CCC#N)CCC#N)cc2)cc1`, the TGI in the test on BT-549 breast is above 100 µM; with DLD-1 colon it was above 100 µM; in the test on HOP-18 NSCLC it was above 100 µM; in the test with M19-MEL melanoma it was above 91.8 µM; in the test on MCF7 breast it was above 100 µM; in the test on MDA-MB-231 breast it was above 100 µM. Also, the TGI with MDA-MB-435, in the test with NCI/ADR-RES ovarian, in the test on PC-3 prostate and with T-47D breast was above 100 µM in each case.
As for `COC(=O)c1ccc(OCc2ccc3oc(=O)c(-c4ccccc4)nc3c2)cc1`, the figures for the TGI in the test with DLD-1 colon, in the test on HOP-18 NSCLC and with M19-MEL melanoma were 38.4 µM, above 100 µM and above 100 µM, respectively.
As for `CCCCCCCCCCCCC(SCCNC(=O)CCNC(=O)C(O)C(C)(C)COP(=O)(O)OP(=O)(O)OCC1OC(n2cnc3c(N)ncnc32)C(O)C1OP(=O)(O)O)C(=O)NCC(N)=O` (stereo not drawn), the TGI in the test on DLD-1 colon, with HOP-18 NSCLC and with M19-MEL melanoma was above 100 µM in each case.
For `CCOC(=O)C(=O)Nc1c(C)cccc1CC`, the TGI in the test with DLD-1 colon, in the test with HOP-18 NSCLC and in the test on M19-MEL melanoma was above 100 µM each time.
On to `Cn1cc(NC(=O)c2cc(NC(=O)CCCCCC(=O)Nc3cc(C(=O)Nc4cc(C(=O)NCCC(=N)N)n(C)c4)n(C)c3)cn2C)cc1C(=O)NCCC(=N)N`, for which the results for the TGI with DLD-1 colon, with HOP-18 NSCLC and in the test on M19-MEL melanoma were above 100 µM, above 100 µM and 92.8 µM, respectively.
For the molecule `CCCCCCCCCCCC(=O)C1=C(O)C(O)CCC1=O` (stereo not drawn), the TGI is above 100 µM in the test on DLD-1 colon, 86.5 µM in the test on HOP-18 NSCLC and 44.6 µM in the test on M19-MEL melanoma.
On to `CN(C)CCNC(=O)c1cc([N+](=O)[O-])cc2ccc(-c3ccccc3)nc12`, for which the TGI with DLD-1 colon was 39.5 µM; in the test with HOP-18 NSCLC, 26.3 µM; with M19-MEL melanoma it was 20 µM; with MCF7 breast, above 100 µM; with NCI/ADR-RES ovarian, 9.97 µM.
Regarding `Cc1ccc(C)c(NC(=O)/C(=N\NC(N)=S)C(C#N)c2ccccc2)c1` (stereo not drawn), the TGI with DLD-1 colon, in the test with HOP-18 NSCLC and with M19-MEL melanoma was above 100 µM in each case.
With `CCOC(=O)c1c2ccc(/C=C/C(=O)OC)ccc-2c(C(=O)OCC)c1N`, the TGI with DLD-1 colon, in the test with HOP-18 NSCLC and in the test on M19-MEL melanoma was above 100 µM throughout.
For the molecule `O=c1oc2c3ccc4ccccc4c3n(Cc3nc4ccccc4[nH]3)c2c2ccccc12`, the TGI in the test with DLD-1 colon, with HOP-18 NSCLC and in the test with M19-MEL melanoma was above 100 µM each time.
Take `c1cncc(C2c3[nH]c4ccccc4c3CCN2CCN2CCCCC2)c1` (stereo not drawn): the TGI in the test with DLD-1 colon, in the test with HOP-18 NSCLC and with M19-MEL melanoma was above 100 µM in each case.
Turning to `Cn1nnnc1[N-]Cc1ccccc1.[Au+].c1ccc([PH+](c2ccccc2)c2ccccc2)cc1`, the GI50 was 1.91 µM in the test on DLD-1 colon, 2.25 µM in the test on HOP-18 NSCLC and 3.32 µM in the test on M19-MEL melanoma. Also, the results for the TGI in the test on DLD-1 colon, in the test with HOP-18 NSCLC and in the test on M19-MEL melanoma were 4.59 µM, 4.98 µM and 25.3 µM, respectively.
On to `Cc1cc2occ(C)c(=O)c2c2c1OC(C)(C)S2`, for which the TGI with DLD-1 colon, in the test on HOP-18 NSCLC and in the test on M19-MEL melanoma was above 100 µM in each case.
`CCc1cccc(C)c1NC(=O)CC1Sc2ccccc2NC1=O` (stereo not drawn): the TGI in the test on DLD-1 colon, in the test on HOP-18 NSCLC and with M19-MEL melanoma was above 100 µM in each case.
`CCCc1ccc(N=Cc2cc(OC)c(OC)c(OC)c2)cc1`: the TGI with DLD-1 colon, in the test with HOP-18 NSCLC and with M19-MEL melanoma was above 100 µM each time.
With `Nc1ccc2c(c1)[O][Sn]([c]1ccccc1)([c]1ccccc1)[O]C2=O`, the GI50 in the test on BT-549 breast was 1.98 µM; with DLD-1 colon it was 4.24 µM; in the test on HOP-18 NSCLC it was 15.6 µM; in the test with M19-MEL melanoma it was 11 µM; in the test on MCF7 breast it was 3.95 µM; with MDA-MB-231 breast, 5.11 µM. Besides, the figures for the GI50 in the test on MDA-MB-435, in the test with NCI/ADR-RES ovarian and in the test with PC-3 prostate were 6.78 µM, 9.08 µM and 12.4 µM, respectively. Also, the TGI came to 6.4 µM in the test on BT-549 breast; 15.4 µM in the test on DLD-1 colon; 29 µM in the test on HOP-18 NSCLC; 23.9 µM in the test with M19-MEL melanoma; 8.52 µM with MCF7 breast; 11.6 µM with MDA-MB-231 breast. Further, the TGI in the test on MDA-MB-435 was determined as 17.3 µM; in the test on NCI/ADR-RES ovarian, 30.2 µM; in the test with PC-3 prostate it was 24.9 µM.
With `CCCN(CCC)c1c([N+](=O)[O-])cc(S(N)(=O)=O)cc1[N+](=O)[O-]`, the TGI with DLD-1 colon was determined as 34.9 µM; with HOP-18 NSCLC, 36.2 µM; with M19-MEL melanoma it was 40.6 µM.
Turning to `CCCCS(=N)(=O)CC[C@H](N)C(=O)O` (stereo partly drawn), the GI50 with BT-549 breast is above 10000 µM; in the test with MCF7 breast it was above 10000 µM; in the test with MDA-MB-231 breast, above 10000 µM; in the test with MDA-MB-435, above 10000 µM; in the test on NCI/ADR-RES ovarian it was 1770 µM; with PC-3 prostate, above 10000 µM. In the test with T-47D breast, the GI50 is above 10000 µM. Also, the TGI in the test with BT-549 breast is above 10000 µM; in the test on DLD-1 colon it was above 5000 µM; in the test with HOP-18 NSCLC, above 5000 µM; in the test with M19-MEL melanoma, above 5000 µM; in the test on MCF7 breast, above 10000 µM; in the test with MDA-MB-231 breast, above 10000 µM. Further, the TGI in the test on MDA-MB-435 was above 10000 µM; in the test on NCI/ADR-RES ovarian, 5000 µM and > 6020 µM; with PC-3 prostate, above 10000 µM; in the test with T-47D breast, above 10000 µM.
Regarding `O=C(N=Nc1c(O)[nH]c2ccccc12)c1ccccc1O`, the TGI in the test with DLD-1 colon, with HOP-18 NSCLC and in the test on M19-MEL melanoma was above 100 µM in each case.
Turning to `CC1=C2N3C[C@@H](n4c(=O)n(C)c(=O)n43)C23CCC1n1c(=O)n(C)c(=O)n13`, the TGI in the test on DLD-1 colon, in the test on HOP-18 NSCLC and with M19-MEL melanoma was above 100 µM throughout.
Consider `CC[C@@]1(OC(=O)CCC(=O)O)C(=O)OCc2c1cc1n(c2=O)Cc2cc3ccccc3nc2-1`, for which the TGI in the test on BT-549 breast was above 28.3 µM; in the test on DLD-1 colon, above 100 µM; in the test on HOP-18 NSCLC it was above 100 µM; with M19-MEL melanoma, 1.69 µM; in the test with MDA-MB-231 breast it was above 27.6 µM; in the test with MDA-MB-435, 3.22 µM. Further, the values for the TGI in the test on NCI/ADR-RES ovarian, in the test on PC-3 prostate and in the test with T-47D breast were 0.791 µM, above 100 µM and 2.62 µM, respectively.
As for `CC(C)(C)N=CN1CCC(C(c2ccccc2)c2ccccc2)CC1`, the TGI in the test with DLD-1 colon, in the test with HOP-18 NSCLC and in the test on M19-MEL melanoma was above 100 µM in each case.
As to `O=C(O)c1[nH]c(C(=O)O)c(CC(F)(F)C(F)(F)C(F)(F)F)c1CC(F)(F)C(F)(F)C(F)(F)F`, the TGI with DLD-1 colon, in the test on HOP-18 NSCLC and in the test with M19-MEL melanoma was above 100 µM each time.
`CC(C)(C)C([O-])=C1C(=O)c2ccccc2C1=O.CC(C)(C)C([O-])=C1C(=O)c2ccccc2C1=O.CC[O-].CC[O-].[Ti+4]`: the figures for the GI50 in the test on DLD-1 colon, with HOP-18 NSCLC and in the test with M19-MEL melanoma were 46.9 µM, 18.2 µM and 31.5 µM, respectively. In addition, the TGI with DLD-1 colon is above 100 µM; with HOP-18 NSCLC, 83.3 µM; with M19-MEL melanoma, above 100 µM.
For the molecule `Cc1c2ncccc2c(C)c2c1[nH]c1ccccc12`, the TGI with DLD-1 colon worked out at 23.2 µM; with HOP-18 NSCLC, 27.3 µM; in the test with M19-MEL melanoma it was 26.1 µM.
Taken in the same sequence, the figures for `Cc1ccc(S(=O)(=O)ON/N=C2/C3OC3[C@@H]3CCCC[C@H]23)cc1` (stereo partly drawn) were above 100 µM, above 100 µM and above 100 µM.

These data come from PubChem BioAssay (NCI).
